Experimental data taken from US20250325256A1, “LIPID PATCH” (SENSACH AB, priority 2021, published 2025).
Like-named read-outs stand apart in the source and are kept apart here.

Legend:
[1] = type: in vitro ADME, pig
Description: Therefore, identical reverse iontophoretic extraction experiments were performed with an empty donor solution (i.e., neat PBS buffer pH 7.4) and the results are shown in FIG. 14. As in the previous section, Trp was extracted towards both receptor compartments, however, the main direction of extraction was towards the cathode. […] This is most likely due to the fact that the amount of extracted Kyn was below the limit of detection by means of HPLC-UV. Therefore, a more sensitive analysis technique is required for quantification of endogenously present Kyn. The cumulative amount of extracted Trp to the cathode was 0.44±0.06 nmol/cm^2 and the anode 0.22±0.05 nmol/cm^2.
Control reverse iontophoretic extraction experiments were conducted in order to estimate the levels of endogenous Trp and, potentially Kyn. It is known that Trp is present in the SC as a part of natural moisturizing factor (NMF), which primarily consists of free amino acids and their derivatives55,56. These experiments were performed using the identical experimental setup with a neat PBS buffer (pH 7.4) in the donor compartment (i.e., no Trp or Kyn being present) and 10 mM HEPES with 60 mM NaCl as background electrolyte (pH 7.4). Sampling was performed once an hour for 6 hours by withdrawing 1 mL of receptor solution and replacing it with a 1 mL of fresh HEPES buffer).

[2] = Post iontophoretic passive extraction (further 18 hours); type: in vitro ADME, pig; settings: for Normalized cumulative amount at anode / Normalized cumulative amount at cathode: mean ± SEM
Excerpt: Therefore, while enhancing extraction at the cathode, electroosmosis (at pH>skin pI) retards the extraction of anions and zwitterions towards the anode as they have to move against the solvent flow. This may result in a build-up of zwitterions moving towards the anode and against the electroosmotic flow. Therefore, the skin membrane that faces the anodal compartment could potentially contain higher amounts of zwitterionic compounds compared to the skin membrane facing the cathodal compartment. In order to further investigate the effect of electroosmosis, the post iontophoretic passive extraction experiments were performed for another 18 hours.
The effect of receptor solution pH on the cumulative amount of endogenous substances extracted from the skin membrane during post iontophoretic passive extraction as well as from passive control experiments is shown in FIG. 16. […] Moreover, in post iontophoretic experiments, there was an increase in the amount of endogenous substances passively extracted into anode compartment with increased pH. In order to determine the amount of endogenous substances obtained during the post iontophoretic step, the cumulative amount of endogenous substances extracted during 6 hours of reverse iontophoresis were subtracted from the total cumulative amount.
In extraction experiments preformed without a cubic phase, sampling was performed every hour for six hours by withdrawing 1 mL from the receptor compartments and replacing it with 1 mL of neat buffer solution. After the final sampling the current was stopped and the donor compartment was emptied. The post iontophoretic passive extraction from the skin membranes was allowed to continue for another 18 hours in order to investigate the effect of electroosmosis, since the skin membrane was the only source of endogenous substance after removal of donor solution. In total 7 samplings were performed over 24 hours i.e., 6 during the current passage and 1 from the post iontophoretic passive extraction. In case of reverse iontophoretic extraction into the cubic phase, the sampling was performed in the same way i.e., every hour for 6 hours 1 mL of receptor solution was replaced with a 1 mL of a neat buffer. However, in contrast to previous procedure, the experiment was terminated after 6 hours of current passage. The cubic phase was collected into 1.7 mL Eppendorf tube ensuring that as little residue as possible was left on the skin surface. The extraction of endogenous substances from the cubic phase was performed as follows: 1 mL of Milli-Q water was added to the cubic phase and left on shaker for 1 hour. After that, each Eppendorf tube was vortex for 1 minute and the final aqueous solution was collected with a syringe. Small part of a cubic phase was taken for SAXD measurements in order to investigate any potential changes in the phase after reverse iontophoretic experiment.

[3] = for Kcub/w / log Kcub/w: fully swollen Pn3m cubic phase (GMO/water) vs water; for bilayer/water partitioning, Kcub/w / bilayer/water partitioning, log Kcub/w: fully swollen Pn3m cubic phase (GMO/water), calculated; for partitioning into the cubic lipid bilayer compared to kynurenine: fully swollen GMO cubic phase
Description: Four concentrations of Trp and Kyn in a range 0.125 mM to 1 mM, corresponding to lipid:Trp(Kyn) ratio in the range 7200:1-900:1, were prepared in Milli-Q water in order to investigate the effect of concertation on the partitioning. The fully swollen cubic phases (˜0.25 g) were prepared by mixing the appropriate amount of GMO with an excess of Milli-Q water (1:1 weight ratio) in a 1.7 mL glass vials and left to equilibrate for 7 days. When samples were equilibrated (typically within 2 days a glass-clear and non-floating cubic phase was formed), each vial was checked between cross polarizers to ensure that no birefringence could be observed. The excess of water was then removed and 500 μL of solution with different concentrations of Trp/Kyn (molar ratio 1:1) were added to each vial. Final samples were allowed to equilibrate with respect to Trp and Kyn partitioning between the lipid bilayer and the aqueous phase. First sampling was performed after one week of equilibration by withdrawing 50 μL of the aqueous phase. Second sampling was performed in identical manner after 2 weeks of equilibration to investigate the time aspect on the partitioning. All samples collected during the partition study were diluted to a final volume 500 μL with Milli-Q water and filtered with a 0.2 μm syringe filters (13 mm PTFE membrane, VWR International, USA) prior to the HPLC-UV analysis. All partition experiments were performed in triplicates.
The lipid bilayer/water partition coefficient, Kbl/w, may be defined as
where [X] is the concentration of an endogenous substance of interest (e.g., Trp and Kyn) in the bilayer and in water. While concertation of a substance in the aqueous phase can easily be determined by a suitable analytical procedure (e.g., HPLC, LC-MS etc.), determination of the concertation in the bilayer requires two assumptions. […] The second assumption is that the concentration of an endogenous substance in the water channels of the cubic phase is the same as in the water bulk phase, which is based on the equilibrium between chemical potentials of endogenous substances in water channels and in the bulk phase. Thus, the partition coefficient may be calculated by rewriting the Eq. 2 as follows
where Vw is the volume of a water solution containing endogenous substance X added to the cubic phase, [X]0w is the initial concentration of an endogenous substance, [X]w is the concentration of endogenous substance in the water phase after equilibration, Vbl is the volume of GMO, Vcube is the volume of water that was added to GMO to form a cubic phase.
The quantification of Trp and Kyn was performed by HPLC-UV system (Agilent 1100 Series, Germany). The chromatographic separation of Trp and Kyn was carried out on 250 mm×4.6 mm Kromasil C18 column with particle size of 5 μm (AkzoNobel, Bellefonte, USA). Endogenous substances were separated by gradient elution using mobile phase A consisting of 10 mM NaH2PO4 (pH 2.8) and mobile phase B consisting of 100% MeOH at 0.9 mL/min flow rate and 40° C. column temperature. […] The total run time was 17 minutes and injection volume was set to 20 μL. Detection of Trp and Kyn was performed at their UV absorbance maxima, at 280 nm and 360 nm, respectively. Stock solutions of 10 mM of Trp and Kyn for calibration curve were prepared in Milli-Q water and kept in the freezer (−20° C.) for no longer than one day after preparation. Calibration standards for calibration curve were analyzed in the range 0.78 μM to 100 μM (R^2>0.999) the same day as the experimental samples.

[4] = pH 4.0, 24 h amount minus first 6 hours
[5] = pH 7.4, 24 h amount minus first 6 hours
[6] = pH 9.0, 24 h amount minus first 6 hours
[7] = pH 4.0, from normalized cumulative amounts
[8] = pH 7.4, from normalized cumulative amounts
[9] = pH 9.0, from normalized cumulative amounts

Structure (SMILES): Nc1ccccc1C(=O)C[C@H](N)C(=O)O [Kyn, L-kynurenine]
- detection of endogenous Kyn [1]: no Kyn was detected
- Normalized cumulative amount at anode [2, 4]: 6.56 ± 2.40 nmol/cm^2
- Normalized cumulative amount at cathode [2, 4]: 5.31 ± 1.35 nmol/cm^2
- Normalized cumulative amount at anode [2, 5]: 14.35 ± 2.33 nmol/cm^2
- Normalized cumulative amount at cathode [2, 5]: 2.12 ± 8.37 nmol/cm^2
- Normalized cumulative amount at anode [2, 6]: 19.90 ± 2.45 nmol/cm^2
- Normalized cumulative amount at cathode [2, 6]: 10.29 ± 2.07 nmol/cm^2
- Kcub/w [3]: 1.3
- log Kcub/w [3]: 0.1
- bilayer/water partitioning, Kcub/w [3]: 1.5
- bilayer/water partitioning, log Kcub/w [3]: 0.2

Structure (SMILES): N[C@@H](Cc1c[nH]c2ccccc12)C(=O)O [Trp, L-tryptophan]
- contribution of endogenous Trp to the total cumulative amount of extracted Trp (at the cathode) ([1]; pig, 6 h, pH 7.4): approximately 6%
- cumulative amount of extracted endogenous Trp to the anode ([1]; pig, 6 h, pH 7.4): 0.22±0.05 nmol/cm^2
- cumulative amount of extracted endogenous Trp to the cathode ([1]; pig, 6 h, pH 7.4): 0.44±0.06 nmol/cm^2
- Normalized cumulative amount at anode [2, 4]: 6.22 ± 1.49 nmol/cm^2
- Normalized cumulative amount at cathode [2, 4]: 5.36 ± 1.32 nmol/cm^2
- Ratio (Trp/Kyn) at anode [2, 7]: 1.19 ± 0.17
- Ratio (Trp/Kyn) at cathode [2, 7]: 1.05 ± 0.03
- Normalized cumulative amount at anode [2, 5]: 14.13 ± 2.25 nmol/cm^2
- Normalized cumulative amount at cathode [2, 5]: 7.38 ± 2.57 nmol/cm^2
- Ratio (Trp/Kyn) at anode [2, 8]: 0.99 ± 0.02
- Ratio (Trp/Kyn) at cathode [2, 8]: 0.86 ± 0.08
- Normalized cumulative amount at anode [2, 6]: 17.52 ± 1.58 nmol/cm^2
- Normalized cumulative amount at cathode [2, 6]: 9.77 ± 1.95 nmol/cm^2
- Ratio (Trp/Kyn) at anode [2, 9]: 0.89 ± 0.02
- Ratio (Trp/Kyn) at cathode [2, 9]: 0.95 ± 0.02
- partitioning into the cubic lipid bilayer compared to kynurenine [3]: twice as high
- partitioning into the cubic lipid bilayer compared to kynurenine ([3]; listed as tryptophan): approximately twice as high
- Kcub/w [3]: 2.2
- log Kcub/w [3]: 0.3
- bilayer/water partitioning, Kcub/w [3]: 3.0
- bilayer/water partitioning, log Kcub/w [3]: 0.5
